From patent US10294202B2, “Pyrrolidinones as herbicides” (FMC Corporation, priority 2013, dated 2019)

Columns and labels:
canarygrass = test: Test D pre-/postemergence herbicide test; type: in vivo, Phalaris minor; details: for Plant response rating: Canarygrass, scale 0 to 100; for Plant response rating, Canarygrass: scale 0 to 100 (0 no effect, 100 complete control)
Description: (§1) Seeds of plant species selected from bluegrass (annual bluegrass, Poa annua), blackgrass (Alopecurus myosuroides), canarygrass (littleseed canarygrass, Phalaris minor), chickweed (common chickweed, Stellaria media), galium (catchweed bedstraw, Galium aparine), bromegrass, downy (downy bromegrass, Bromus tectorum), field poppy (Papaver rhoeas), field violet (Viola arvensis), foxtail, green (green foxtail, Setaria viridis), deadnettle (henbit deadnettle, Lamium amplexicaule), ryegrass, Italian (Italian ryegrass, Lolium multiflorum), kochia (Kochia scoparia), lambsquarters (Chenopodium album), oilseed rape (Brassica napus), pigweed (Amaranthus retroflexus), chamomile (scentless chamomile, Matricaria inodora), Russian thistle (Salsola kali), speedwell (bird's-eye speedwell, Veronica persica), barley, spring (spring barley, Hordeum vulgare), wheat, spring (spring wheat, Triticum aestivum), buckwheat, wild (wild buckwheat, Polygonum convolvulus), mustard, wild (wild mustard, Sinapis arvensis), oat, wild (wild oat, Avena fatua), radish, wild (wild radish, Raphanus raphanistrum), […]), barley, winter (winter barley, Hordeum vulgare), and wheat, winter (winter wheat, Triticum aestivum) were planted into a silt loam soil and treated preemergence with test chemicals formulated in a non-phytotoxic solvent mixture which included a surfactant. At the same time, these species were planted in pots containing Redi-Earth® planting medium (Scotts Company, 14111 Scottslawn Road, Marysville, Ohio 43041) comprising spaghnum peat moss, vermiculite, wetting agent and starter nutrients and treated with postemergence applications of the test chemicals formulated in the same manner. Plants ranged in height from 2 to 18 cm (1- to 4-leaf stage). Treated plants and controls were maintained in a controlled growth environment for 7 to 21 days after which time all species were compared to controls and visually evaluated. Plant response ratings, summarized in Table D, are based on a scale of 0 to 100 where 0 is no effect and 100 is complete control. A dash (-) response means no test result.

oilseed rape = test: Test D pre-/postemergence herbicide test; type: in vivo, Brassica napus; details: for Plant response rating: Postemergence, Oilseed Rape, scale 0 to 100; for Plant response rating, Oilseed Rape: Preemergence, scale 0 to 100 (0 no effect, 100 complete control)
Description: as §1

blackgrass = test: Test D pre-/postemergence herbicide test; type: in vivo, Alopecurus myosuroides; details: for Plant response rating: Blackgrass, scale 0 to 100; for Plant response rating, Blackgrass: scale 0 to 100 (0 no effect, 100 complete control)
Description: as §1

nutsedge, yellow = test: Test E preemergence herbicide test; type: in vivo, Cyperus esculentus; set-up: key: 0 = no effect, 100 = complete control
Description: (§2) Seeds of plant species selected from corn (Zea mays), soybean (Glycine max), velvetleaf (Abutilon theophrasti), lambsquarters (Chenopodium album), wild poinsettia (Euphorbia heterophylla), pigweed, palmer (palmer pigweed, Amaranthus palmeri), waterhemp (common waterhemp, Amaranthus rudis), surinam grass (Brachiaria decumbens), crabgrass, large (large crabgrass, Digitaria sanguinalis), crabgrass, Brazil (Brazilian crabgrass, Digitaria horizontalis), panicum, fall (fall panicum, Panicum dichotomiflorum), foxtail, giant (giant foxtail, Setaria faberii), foxtail, green (green foxtail, Setaria viridis), goosegrass (Eleusine indica), johnsongrass (Sorghum halepense), ragweed (common ragweed, Ambrosia elatior), barnyardgrass (Echinochloa crus-galli), sandbur (southern sandbur, Cenchrus echinatus), arrowleaf […] rhombifolia), ryegrass, Italian (Italian ryegrass, Lolium multiflorum), dayflower, VA (Virginia dayflower, Commelina virginica), field bindweed (Convolvulus arvensis), morningglory (Ipomoea coccinea), nightshade (eastern black nightshade, Solanum ptycanthum), kochia (Kochia scoparia), nutsedge, yellow (yellow nutsedge, Cyperus esculentus), cocklebur (common cocklebur, Xanthium strumarium), smartweed (ladysthumb smartweed, Polygonum Persicaria) and beggarticks (hairy beggarticks, Bidens pilosa), were planted into a silt loam soil and treated preemergence with test chemicals formulated in a non-phytotoxic solvent mixture which included a surfactant. Treated plants and controls were maintained in a greenhouse for 21 days, after which time all species were compared to controls and visually evaluated. Plant response ratings, summarized in Table E, are based on a scale of 0 to 100 where 0 is no effect and 100 is complete control. A dash (-) response means no test result.

goosegrass = test: Test E preemergence herbicide test; type: in vivo, Eleusine indica; set-up: key: 0 = no effect, 100 = complete control
Description: as §2

velvetleaf = test: Test E preemergence herbicide test; type: in vivo, Abutilon theophrasti; set-up: key: 0 = no effect, 100 = complete control
Description: as §2

nightshade = test: Test E preemergence herbicide test; type: in vivo, Solanum ptycanthum; set-up: key: 0 = no effect, 100 = complete control
Description: as §2

Structure (SMILES) | Plant response rating (canarygrass; Postemergence, 31 g ai/ha) | Plant response rating (canarygrass; Postemergence, 62 g ai/ha) | Plant response rating (canarygrass; Postemergence, 125 g ai/ha) | Plant response rating, Canarygrass (canarygrass; Preemergence, 62 g ai/ha) | Plant response rating, Canarygrass (canarygrass; Preemergence, 31 g ai/ha) | Plant response rating (canarygrass; Preemergence, 125 g ai/ha) | Plant response rating (canarygrass; Preemergence, 250 g ai/ha) | Plant response rating (oilseed rape; 31 g ai/ha) | Plant response rating (oilseed rape; 62 g ai/ha) | Plant response rating (oilseed rape; 125 g ai/ha) | Plant response rating, Oilseed Rape (oilseed rape; 62 g ai/ha) | Plant response rating, Oilseed Rape (oilseed rape; 125 g ai/ha) | Plant response rating, Oilseed Rape (oilseed rape; 31 g ai/ha) | Plant response rating, Oilseed Rape (oilseed rape; 250 g ai/ha) | Plant response rating (blackgrass; Postemergence, 31 g ai/ha) | Plant response rating (blackgrass; Postemergence, 62 g ai/ha) | Plant response rating (blackgrass; Postemergence, 125 g ai/ha) | Plant response rating, Blackgrass (blackgrass; Preemergence, 62 g ai/ha) | Plant response rating, Blackgrass (blackgrass; Preemergence, 31 g ai/ha) | Plant response rating (blackgrass; Preemergence, 125 g ai/ha) | further results
O=C1NCC(c2ccc(Cl)c(F)c2)C1C(=O)Nc1cccc(F)c1F (centres unmarked) [Compound 52] | 0 | 0 | 0 | 0 | 0 | 0 | 0 | 0 | 0 | 10 | 0 | 10 | 0 | 10 | 0 | 0 | 0 | 0 | 0 | 0 | Plant response rating (canarygrass; Postemergence, 16 g ai/ha): 0; Plant response rating (canarygrass; Postemergence, 250 g ai/ha): 0; Plant response rating, Canarygrass (canarygrass; Preemergence, 16 g ai/ha): 0; Plant response rating (oilseed rape; 16 g ai/ha): 0; Plant response rating (oilseed rape; 250 g ai/ha): 25; Plant response rating, Oilseed Rape (oilseed rape; 16 g ai/ha): 0; Plant response rating (blackgrass; Postemergence, 16 g ai/ha): 0; Plant response rating (blackgrass; Postemergence, 250 g ai/ha): 0; Plant response rating, Blackgrass (blackgrass; Preemergence, 16 g ai/ha): 0; Plant response rating (blackgrass; Preemergence, 250 g ai/ha): 0
O=C1NCC(c2ccc(F)c(C(F)(F)F)c2)C1C(=O)Nc1cccc(F)c1F (racemic) [Compound 77] |  |  |  | 45 | 25 | 65 | 85 |  |  |  | 5 | 5 | 5 | 5 |  |  |  | 25 | 10 | 40 | Plant response rating (blackgrass; Preemergence, 250 g ai/ha): 65
O=C1NCC(c2ccc(Cl)c(Cl)c2)C1C(=O)Nc1ccccc1F (racemic) [Compound 14] |  |  |  |  |  |  |  |  |  |  |  |  |  |  |  |  |  |  |  |  | Plant response rating, Nutsedge, Yellow (nutsedge, yellow; 16 g ai/ha): 0; Plant response rating, Nutsedge, Yellow (nutsedge, yellow; 31 g ai/ha): 0; Plant response rating, Nutsedge, Yellow (nutsedge, yellow; 62 g ai/ha): 0; Plant response rating, Nutsedge, Yellow (nutsedge, yellow; 125 g ai/ha): 0; Plant response rating, Nutsedge, Yellow (nutsedge, yellow; 250 g ai/ha): 0; Plant response rating, Goosegrass (goosegrass; 16 g ai/ha): 0; Plant response rating, Goosegrass (goosegrass; 31 g ai/ha): 0; Plant response rating, Goosegrass (goosegrass; 62 g ai/ha): 0; Plant response rating, Goosegrass (goosegrass; 125 g ai/ha): 0; Plant response rating, Goosegrass (goosegrass; 250 g ai/ha): 0; Plant response rating, Velvetleaf (velvetleaf; 16 g ai/ha): 0; Plant response rating, Velvetleaf (velvetleaf; 31 g ai/ha): 0; Plant response rating, Velvetleaf (velvetleaf; 62 g ai/ha): 0; Plant response rating, Velvetleaf (velvetleaf; 125 g ai/ha): 0; Plant response rating, Velvetleaf (velvetleaf; 250 g ai/ha): 0; Plant response rating, Nightshade (nightshade; 16 g ai/ha): 0; Plant response rating, Nightshade (nightshade; 31 g ai/ha): 0; Plant response rating, Nightshade (nightshade; 62 g ai/ha): 30; Plant response rating, Nightshade (nightshade; 125 g ai/ha): 50; Plant response rating, Nightshade (nightshade; 250 g ai/ha): 70
O=C1NCC(c2cc(F)c(F)cc2F)C1C(=O)Nc1cccc(F)c1F (centres unmarked) [Compound 50] | 0 | 0 | 0 | 0 | 0 | 0 |  | 5 | 5 | 5 | 0 | 0 | 0 |  | 0 | 0 | 0 | 0 | 0 | 0 | Plant response rating (canarygrass; Postemergence, 16 g ai/ha): 0; Plant response rating, Canarygrass (canarygrass; Preemergence, 16 g ai/ha): 0; Plant response rating (oilseed rape; 16 g ai/ha): 5; Plant response rating, Oilseed Rape (oilseed rape; 16 g ai/ha): 0; Plant response rating (blackgrass; Postemergence, 16 g ai/ha): 0; Plant response rating, Blackgrass (blackgrass; Preemergence, 16 g ai/ha): 0
O=C1NCC(c2ccc(C(F)(F)F)cc2)C1C(=O)Nc1ccccc1F (centres unmarked) [Compound 231] | 0 | 0 | 0 | 15 | 0 |  | 35 | 15 | 10 | 20 | 0 | 45 | 0 | 55 | 0 | 10 | 10 | 0 | 0 |  | Plant response rating (canarygrass; Postemergence, 250 g ai/ha): 0; Plant response rating, Canarygrass (canarygrass; Preemergence, 125 g ai/ha): 20; Plant response rating (oilseed rape; 250 g ai/ha): 40; Plant response rating (blackgrass; Postemergence, 250 g ai/ha): 20; Plant response rating, Blackgrass (blackgrass; Preemergence, 125 g ai/ha): 15; Plant response rating (blackgrass; Preemergence, 250 g ai/ha): 55
O=C1NCC(c2ccc(F)c(F)c2)C1C(=O)Nc1ccccc1C(F)(F)F (racemic) [Compound 6] | 0 | 0 | 0 | 10 | 0 | 20 | 20 | 10 | 10 | 15 | 0 | 10 | 0 | 20 | 0 | 5 | 5 | 0 | 0 | 0 | Plant response rating (canarygrass; Postemergence, 16 g ai/ha): 0; Plant response rating (canarygrass; Postemergence, 250 g ai/ha): 0; Plant response rating, Canarygrass (canarygrass; Preemergence, 16 g ai/ha): 0; Plant response rating (oilseed rape; 16 g ai/ha): 10; Plant response rating (oilseed rape; 250 g ai/ha): 20; Plant response rating, Oilseed Rape (oilseed rape; 16 g ai/ha): 0; Plant response rating (blackgrass; Postemergence, 16 g ai/ha): 0; Plant response rating (blackgrass; Postemergence, 250 g ai/ha): 10; Plant response rating, Blackgrass (blackgrass; Preemergence, 16 g ai/ha): 0; Plant response rating (blackgrass; Preemergence, 250 g ai/ha): 0
